Laboratory results taken from patent publication US20240270762A1, “PENICILLIN-BINDING PROTEIN INHIBITORS” (priority 2021, published 2024).
Converted amounts (≈) assume the structure as drawn. Where two headings read alike, the source gives them in different places.

Columns and labels:
P. aeruginosa ATCC 27853 = assay: microbe, parasite or virus in culture; format: cell-based; settings: Pseudomonas aeruginosa, ATCC27853, read-out: Minimum inhibitory concentration, P. aeruginosa ATCC 27853
A. baumannii PBP1a = target: T1, A. baumannii PBP1a (Acinetobacter baumannii, UniProt A0ABX6CK30); assay: Bocillin-FL competition binding via gel filtration, A. baumannii PBP1a; settings: competition binding assay using Bocillin-FL via gel filtration; read-out: A. baumannii PBP1a Potency
T1 sequence (A0ABX6CK30 1-851): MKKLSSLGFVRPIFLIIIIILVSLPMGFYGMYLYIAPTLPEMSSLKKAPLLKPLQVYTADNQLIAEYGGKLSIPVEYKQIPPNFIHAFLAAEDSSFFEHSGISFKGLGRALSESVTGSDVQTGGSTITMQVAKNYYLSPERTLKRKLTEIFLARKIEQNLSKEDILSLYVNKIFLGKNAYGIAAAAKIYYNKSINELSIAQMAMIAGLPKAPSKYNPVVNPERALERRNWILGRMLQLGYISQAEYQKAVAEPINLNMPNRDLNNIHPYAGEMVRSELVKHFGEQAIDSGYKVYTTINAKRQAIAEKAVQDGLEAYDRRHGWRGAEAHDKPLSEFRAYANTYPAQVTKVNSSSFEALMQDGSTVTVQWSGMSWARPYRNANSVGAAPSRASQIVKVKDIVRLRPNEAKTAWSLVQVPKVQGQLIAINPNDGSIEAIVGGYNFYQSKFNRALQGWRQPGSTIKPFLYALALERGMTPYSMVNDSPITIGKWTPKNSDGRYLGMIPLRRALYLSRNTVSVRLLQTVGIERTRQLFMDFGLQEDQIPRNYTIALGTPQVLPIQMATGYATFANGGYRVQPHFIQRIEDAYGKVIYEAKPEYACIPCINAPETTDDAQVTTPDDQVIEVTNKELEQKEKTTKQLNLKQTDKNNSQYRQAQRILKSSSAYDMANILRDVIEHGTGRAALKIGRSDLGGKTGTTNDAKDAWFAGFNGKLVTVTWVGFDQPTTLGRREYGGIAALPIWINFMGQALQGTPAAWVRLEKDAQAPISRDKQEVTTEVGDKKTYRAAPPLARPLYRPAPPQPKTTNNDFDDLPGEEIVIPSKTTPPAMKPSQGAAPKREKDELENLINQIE
Procedure, shortened: (§1)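 Competitive equilibrium binding with Bocillin-FL reporter: PBP pre-incubated with inhibitor dilutions, Bocillin-FL added, 15 min incubation. Labelled enzyme isolated by size-exclusion spin plates, fluorescence measured; EC50 obtained by fitting bound fraction against inhibitor concentration with a Hill-coefficient model.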

A. baumannii CDC-0045 = assay: microbe, parasite or virus in culture; format: cell-based; settings: Acinetobacter baumannii
A. baumannii PBP2 = A. baumannii PBP2 (Acinetobacter baumannii, UniProt D0C8Z9); assay: Bocillin-FL competition binding via gel filtration, A. baumannii PBP2
Chain of A. baumannii PBP2 (D0C8Z9 whole entry): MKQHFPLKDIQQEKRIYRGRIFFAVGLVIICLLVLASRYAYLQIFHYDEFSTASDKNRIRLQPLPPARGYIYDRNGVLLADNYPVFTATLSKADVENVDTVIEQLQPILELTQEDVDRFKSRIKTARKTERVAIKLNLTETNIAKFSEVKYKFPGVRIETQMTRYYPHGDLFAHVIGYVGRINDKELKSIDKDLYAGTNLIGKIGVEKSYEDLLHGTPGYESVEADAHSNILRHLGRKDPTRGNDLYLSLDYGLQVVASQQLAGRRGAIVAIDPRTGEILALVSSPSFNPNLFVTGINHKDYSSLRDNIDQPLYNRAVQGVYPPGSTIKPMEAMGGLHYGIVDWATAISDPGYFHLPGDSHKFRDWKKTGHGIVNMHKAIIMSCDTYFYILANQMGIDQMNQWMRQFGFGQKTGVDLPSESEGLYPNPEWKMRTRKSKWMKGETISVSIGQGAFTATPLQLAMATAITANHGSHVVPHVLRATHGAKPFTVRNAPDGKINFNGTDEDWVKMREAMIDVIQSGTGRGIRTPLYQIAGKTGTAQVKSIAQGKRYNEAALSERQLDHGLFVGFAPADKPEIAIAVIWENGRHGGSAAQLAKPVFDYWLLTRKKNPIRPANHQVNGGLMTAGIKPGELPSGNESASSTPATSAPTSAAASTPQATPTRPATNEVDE
Procedure, shortened: as §1

P. aeruginosa CDC-0054 = assay: microbe, parasite or virus in culture; format: cell-based; settings: Pseudomonas aeruginosa, CDC0054, read-out: Minimum inhibitory concentration, P. aeruginosa CDC-0054
P. aeruginosa CDC-0090 = assay: microbe, parasite or virus in culture; format: cell-based; settings: Pseudomonas aeruginosa, CDC0090, read-out: Minimum inhibitory concentration, P. aeruginosa CDC-0090
A. baumannii 1258916 = assay: microbe, parasite or virus in culture; format: cell-based, Acinetobacter baumannii
[1] = test system: B. humptydooensis ATCC BAA-2767; assay: microbe, parasite or virus in culture; format: cell-based; settings: Burkholderia humptydooensis, ATCCBAA2767, read-out: Minimum inhibitory concentration (MIC), B. humptydooensis ATCC BAA-2767
[2] = test system: P. aeruginosa (ΔmexAB-oprM); assay: Broth microdilution MIC in iron-depleted CAMHB (IDM); format: cell-based; settings: Pseudomonas aeruginosa; iron-depleted CAMHB (IDM); […]; read-out: Minimum inhibitory concentration, P. aeruginosa ΔmexAB-oprM
[3] = CDC0045, read-out: MIC, A. baumannii CDC-0045
[4] = Acinetobacter baumannii, 1258916, read-out: MIC, A. baumannii 1258916

Compound	MIC (P. aeruginosa ATCC 27853)	EC50 (A. baumannii PBP1a)	MIC (A. baumannii CDC-0045; [3])	EC50 (A. baumannii PBP2)	MIC (P. aeruginosa CDC-0054)	MIC (P. aeruginosa CDC-0090)	MIC (A. baumannii 1258916; [4])	MIC [1]	MIC [2]	MIC (A. baumannii CDC-0045; CDC0045, read-out: Minimum inhibitory concentration (MIC), A. baumannii CDC-0045)	MIC (A. baumannii 1258916; Acinetobacter baumannii, 1258916, read-out: Minimum inhibitory concentration (MIC), A. baumannii 1258916)
O=C(O)c1c(F)ccc2c1OB(O)[C@@H](NC(=O)[C@H](NC(=O)N1CCN(C3CCN(C(=O)Nc4c(F)ccc(O)c4Cl)CC3)C1=O)c1cc(F)c(O)c(O)c1Cl)C2 (single isomer, unassigned) [Example 455]	< 1 µg/mL	< 10 µM	< 1 µg/mL	< 10 µM	< 1 µg/mL	< 1 µg/mL	< 1 µg/mL	< 1 µg/mL	< 1 µg/mL		
O=C(O)c1c(F)ccc2c1OB(O)[C@@H](NC(=O)[C@H](NC(=O)N1CCN(C3CCN(C(=O)c4cccc(O)c4)CC3)C1=O)c1cc(F)c(O)c(O)c1Cl)C2 (single isomer, unassigned) [Example 430]	< 1 µg/mL	< 10 µM	8 to 16 µg/mL (≈ 10.6 to 21.1 µM)	< 10 µM	< 1 µg/mL	< 1 µg/mL	8 to 16 µg/mL (≈ 10.6 to 21.1 µM)	< 1 µg/mL	< 1 µg/mL		
O=C(O)c1c(F)ccc2c1OB(O)[C@@H](NC(=O)[C@H](NC(=O)N1CCN(C3CCN(C(=O)c4cc(O)c(F)c(O)c4)CC3)C1=O)c1cc(F)c(O)c(O)c1Cl)C2 (single isomer, unassigned) [Example 443]	< 1 µg/mL	< 10 µM	< 1 µg/mL	< 10 µM	< 1 µg/mL	< 1 µg/mL	< 1 µg/mL	< 1 µg/mL	< 1 µg/mL		
O=C(O)c1c(F)ccc2c1OB(O)[C@@H](NC(=O)C(NC(=O)N1CCN(C3CCN(C(=O)Nc4ccc(F)c(O)c4F)CC3)C(=O)C1=O)c1cc(F)c(O)c(O)c1Cl)C2 (stereo partly drawn) [Example 486, (3R)-3-(2-(2-chloro-5-fluoro-3,4-dihydroxyphenyl)-2-(4-(1-((2,4-difluoro-3-hydroxyphenyl)carbamoyl)piperidin-4-yl)-2,3-dioxopiperazine-1-carboxamido)acetamido)-7-fluoro-2-hydroxy-3,4-dihydro-2H-benzo[e][1,2]oxaborinine-8-carboxylic acid]	2 to 4 µg/mL (≈ 2.39 to 4.78 µM)	< 10 µM		< 10 µM	< 1 µg/mL	2 to 4 µg/mL (≈ 2.39 to 4.78 µM)		2 to 4 µg/mL (≈ 2.39 to 4.78 µM)	< 1 µg/mL	< 1 µg/mL	< 1 µg/mL
O=C(O)c1cccc2c1OB(O)[C@@H](NC(=O)C(NC(=O)N1CCN(Cc3cc(F)c(O)c(O)c3Cl)C(=O)C1=O)c1ccc(P(=O)(O)O)cc1)C2 (stereo partly drawn) [Example 164, (3R)-3-(2-(4-(2-chloro-5-fluoro-3,4-dihydroxybenzyl)-2,3-dioxopiperazine-1-carboxamido)-2-(4-phosphonophenyl)acetamido)-2-hydroxy-3,4-dihydro-2H-benzo[e][1,2]oxaborinine-8-carboxylic acid]	< 1 µg/mL	< 10 µM	< 1 µg/mL	< 10 µM	< 1 µg/mL	< 1 µg/mL	< 1 µg/mL	< 1 µg/mL	< 1 µg/mL		
O=C(O)c1c(F)ccc2c1OB(O)[C@@H](NC(=O)[C@H](NC(=O)N1CCN(Cc3ccc(O)c(O)c3Cl)C(=O)C1=O)c1ccc(P(=O)(O)O)cc1)C2 (single isomer, unassigned) [Example 160]	< 1 µg/mL	< 10 µM	< 1 µg/mL	< 10 µM	< 1 µg/mL	< 1 µg/mL	< 1 µg/mL	< 1 µg/mL	< 1 µg/mL		
O=C(O)c1c(F)ccc2c1OB(O)[C@@H](NC(=O)[C@H](NC(=O)N1CCN(C3CCN(C(=O)c4cc(O)ccc4Cl)CC3)C1=O)c1cc(F)c(O)c(O)c1Cl)C2 (single isomer, unassigned) [Example 434]	< 1 µg/mL	< 10 µM	< 1 µg/mL	< 10 µM	< 1 µg/mL	< 1 µg/mL	< 1 µg/mL	< 1 µg/mL	< 1 µg/mL		
O=C(O)c1c(F)ccc2c1OB(O)[C@@H](NC(=O)[C@H](NC(=O)N1CCN(C3CCN(C(=O)c4c(F)ccc(O)c4F)CC3)C1=O)c1cc(F)c(O)c(O)c1Cl)C2 (single isomer, unassigned) [Example 439]	< 1 µg/mL	10 to 50 µM	< 1 µg/mL	< 10 µM	2 to 4 µg/mL (≈ 2.52 to 5.04 µM)	< 1 µg/mL	< 1 µg/mL	< 1 µg/mL	< 1 µg/mL		
O=C(NCCS(=O)(=O)N1CCN(C(=O)N[C@@H](C(=O)N[C@H]2Cc3ccc(F)c(C(=O)O)c3OB2O)c2ccc(P(=O)(O)O)cc2)C1=O)c1ccc(O)c(O)c1Cl (single isomer, unassigned) [Example 168]	8 to 16 µg/mL (≈ 9.66 to 19.3 µM)	50 to 250 µM	2 to 4 µg/mL (≈ 2.42 to 4.83 µM)	< 10 µM	32 to 64 µg/mL (≈ 38.7 to 77.3 µM)	32 to 64 µg/mL (≈ 38.7 to 77.3 µM)	2 to 4 µg/mL (≈ 2.42 to 4.83 µM)	< 1 µg/mL	8 to 16 µg/mL (≈ 9.66 to 19.3 µM)		
O=C(O)c1c(F)ccc2c1OB(O)[C@@H](NC(=O)[C@H](NC(=O)N1CCN(C3CCN(C(=O)Nc4cccc(O)c4F)CC3)C1=O)c1cc(F)c(O)c(O)c1Cl)C2 (single isomer, unassigned) [Example 446]	< 1 µg/mL	10 to 50 µM	< 1 µg/mL	< 10 µM	< 1 µg/mL	< 1 µg/mL	< 1 µg/mL	< 1 µg/mL	< 1 µg/mL		
O=C(O)c1c(F)ccc2c1OB(O)[C@@H](NC(=O)[C@H](NC(=O)N1CCN(C3CCN(C(=O)Nc4cc(O)ccc4F)CC3)C1=O)c1cc(F)c(O)c(O)c1Cl)C2 (single isomer, unassigned) [Example 451]	< 1 µg/mL	< 10 µM	< 1 µg/mL	< 10 µM	< 1 µg/mL	< 1 µg/mL	< 1 µg/mL	< 1 µg/mL	< 1 µg/mL		
O=C(O)c1c(F)ccc2c1OB(O)[C@@H](NC(=O)[C@H](NC(=O)N1CCN(C3CCN(C(=O)Nc4cc(O)cc(O)c4)CC3)C1=O)c1cc(F)c(O)c(O)c1Cl)C2 [Example 456, (R)-3-((R)-2-(2-chloro-5-fluoro-3,4-dihydroxyphenyl)-2-(3-(1-((3,5-dihydroxyphenyl)carbamoyl)piperidin-4-yl)-2-oxoimidazolidine-1-carboxamido)acetamido)-7-fluoro-2-hydroxy-3,4-dihydro-2H-benzo[e][1,2]oxaborinine-8-carboxylic acid]	< 1 µg/mL	< 10 µM	< 1 µg/mL	< 10 µM	< 1 µg/mL	< 1 µg/mL	< 1 µg/mL	< 1 µg/mL	< 1 µg/mL		
O=C(O)c1c(F)ccc2c1OB(O)[C@@H](NC(=O)C(NC(=O)N1CCN(C3CCN(C(=O)Nc4cc(O)ccc4Cl)CC3)C(=O)C1=O)c1cc(F)c(O)c(O)c1Cl)C2 (stereo partly drawn) [Example 483, (3R)-3-(2-(2-chloro-5-fluoro-3,4-dihydroxyphenyl)-2-(4-(1-((2-chloro-5-hydroxyphenyl)carbamoyl)piperidin-4-yl)-2,3-dioxopiperazine-1-carboxamido)acetamido)-7-fluoro-2-hydroxy-3,4-dihydro-2H-benzo[e][1,2]oxaborinine-8-carboxylic acid]	2 to 4 µg/mL (≈ 2.39 to 4.79 µM)	< 10 µM	< 1 µg/mL	10 to 50 µM	2 to 4 µg/mL (≈ 2.39 to 4.79 µM)	2 to 4 µg/mL (≈ 2.39 to 4.79 µM)	< 1 µg/mL	> 128 µg/mL	< 1 µg/mL		
